# Measured values published in publication PMC9103184, “Kunitz-Type Peptides from Sea Anemones Protect Neuronal Cells against Parkinson’s Disease Inductors via Inhibition of ROS Production and ATP-Induced P2X7 Receptor Activation” (International Journal of Molecular Sciences, 2022).
# Key:
# Type in all cases: cell-based, murine
# Neuro-2a cells [1] = assay: Paraquat-induced toxicity, cell viability (MTT); conditions: peptide up to 10 μM, 600 μM paraquat, 24 h
# Experimental: The murine neuroblastoma cell line Neuro-2a was purchased from ATCC (CCL-131, American Type Culture Collection, Manassas, VA, USA). Cells were cultured in Dulbecco’s modified Eagle’s medium (DMEM) (Biolot, St. Petersburg, Russia) containing 10% fetal bovine serum (Biolot, St. Petersburg, Russia) and 1% penicillin/streptomycin (Biolot, St. Petersburg, Russia) according to ATCC’s instruction. Cells were incubated at 37 °C in a humidified atmosphere containing 5% CO2 (v/v). Before the experiments, Neuro-2a cells at a concentration of 1 × 10^4 cells/well were dispensed into 96-well plates and incubated for 24 h in a humidified atmosphere containing 5% CO2 to allow cell attachment.
# Then, 20 μL of substance solution was loaded into the cells and incubated for 24 h followed by replacement of the medium with tested substances and 100 μL of fresh medium. Then, 10 μL of MTT (3-(4,5-dimethylthiazol-2-yl)-2,5- diphenyltetrazolium bromide) (Sigma-Aldrich, St. Louis, MO, USA) stock solution (5 mg/mL) was added to each well and the microplate was incubated for 4 h. […] The absorbance of the converted dye formazan was measured using a Multiskan FC microplate photometer (Thermo Scientific, Waltham, MA, USA) at a wavelength of 570 nm. […] Cytotoxic activity was expressed as the percentage of cell viability. […]
# P2X7R = assay: ATP-induced YO-PRO-1 uptake in Neuro-2a cells; conditions: 0.01–1.0 μM, 4 mM ATP
# Experimental: Figure 11 The effects of the peptides on ATP-induced Neuro-2a cell viability and activation of P2X7R. (a) Impact of the peptides on Neuro-2a cell viability in the presence of 4 mM ATP. The peptides were tested at concentrations of 0.01, 0.1, and 1.0 μM. Cells were incubated with peptides for 1 h at 37 °C, then for 48 h with ATP. (b) Effects of the peptides (0.01, 0.1, and 1.0 μM) on YO-PRO-1 uptake in Neuro-2a cells. ATP was used as a P2X7R agonist. A438079 (10 μM) was used as a standard inhibitor of P2X7R. The peptide effects were evaluated against the effects of ATP. The data are shown as means ± SE; *—p < 0.05 compared to the effect of ATP alone.
# For the uptake measurements of the large cationic dye YO-PRO-1, the peptides at final concentrations of 0.01, 0.1, and 1.0 μM were added to the culture medium with Neuro-2a cells and further incubated for 1 h at 37 °C with 5% CO2. Then, the cells were washed once with Hanks’ balanced salt solution (HBSS) (140 mM NaCl, 5 mM KCl, 0.8 mM MgCl2, 2 mM CaCl2, 10 mM glucose, 10 mM HEPES, pH 7.4) and filled with 180 μL of the same buffer. YO-PRO-1 (Sigma-Aldrich, St. Louis, MO, USA) was loaded into the wells to a final concentration of 5 μM, the cells were incubated for 15 min at 37 °C, then ATP was added to a final concentration of 4 mM and the plates were incubated for an additional 10 min. Then, the cells were washed three times with the buffer solution and the fluorescence intensity levels were measured with a PHERAstar FS plate reader (BMG, Germany) at λex = 480 nm and λem = 520 nm. A438079 (10 μM), a standard inhibitor of P2X7R, was used as positive control. The effectiveness of the peptides was evaluated relative to the control with ATP.
# Neuro-2a cells [2] = assay: Paraquat-induced ROS formation (H2DCF-DA); conditions: peptide 0.01 μM, 600 μM paraquat 3 h, means ± SE
# Experimental: (§1) Figure 8 Effects of the peptides on intracellular ROS and NO formation. The effects of the peptides on ROS formation into Neuro-2a cells treated by 600 μM paraquat (a) and 10 μM rotenone (b). The effects of peptides on NO formation into the cells treated by 600 μM paraquat (c) and 10 μM rotenone (d). Cells were incubated with peptides for 1 h at 37 °C, then 3 or 1 h with paraquat or rotenone, respectively. The data are shown as the means ± SE; *—p < 0.05, **—p < 0.01, #—p < 0.05 when comparing concentrations of the same peptide.
# (§2) Neuro-2a cells were incubated with peptides at concentrations of 0.01, 0.1, and 1 µM for 1 h. Then, paraquat (600 μM) or rotenone (10 µM) was added to each well and cells were incubated for 3 or 1 h, respectively. To study the ROS formation, the 2,7-dichlorodihydrofluorescein diacetate (H2DCF-DA) assay was performed according to the manufacturer’s instructions (Molecular Probes, Eugene, OR, USA). […]
# (§3) To determine the NO production, a 4-amino-5-methylamino-2′,7′-difluorofluorescein diacetate (DAF-FM) assay was performed according to the manufacturer’s instructions (Invitrogen, Carlsbad, CA, USA). […] In both cases, the fluorescence intensity was measured using a PHERAstar FS high-speed plate reader (BMG Labtech, Ortenberg, Germany) at λex = 485 nm and λem = 518 nm. […]
# Neuro-2a cells [3] = assay: Rotenone-induced ROS formation (H2DCF-DA); conditions: peptide 0.01 μM, 10 μM rotenone 1 h, means ± SE
# Experimental: as §1, §2, §3
substance,measurement,setting,value
"HCIQ2c1: recombinant Kunitz-type peptide from Heteractis crispa, UniProtKB ID A0A6B7FBD3 (IQGNICSEPKKVGRCRGSFPRFYFDSETGKCTPFIYGGCGGNGNNFETLHACRAICRA; UniProt A0A6B7FBD3 28-85, looked up)",influence on viability of paraquat-treated cells,Neuro-2a cells [1],did not influence the viability
same,inhibition of ATP-induced YO-PRO-1 uptake,P2X7R,"inhibited ATP-induced dye uptake, but their effects were not statistically significant"
same,decrease in paraquat-induced ROS level,Neuro-2a cells [2],30.7 ± 1.8%
same,decrease in rotenone-induced ROS level,Neuro-2a cells [3],22.0 ± 7.3%
